Test results as given in patent US12594280B2, “Antiviral compositions for treating the flu” (UNIVERSITE CLAUDE BERNARD LYON 1, priority 2015, dated 2026).
Like-named read-outs stand apart in the source and are kept apart here.

How the values were obtained:
[1] = in vivo evaluation in mice of toxicity (change in weight); settings: gavage; oseltamivir 10 mg/kg/day, etilefrine 3 mg/kg/day, diltiazem 90 mg/kg/day
Description: FIG. 4. In vivo evaluation of the toxicity of the following molecules: oseltamivir, monensin, diltiazem, etilefrine and isoxicam. The “Saline” control indicates the weight of mice treated with PBS. The curve represents the change in weight (weight gain/loss expressed as a percentage) of the various groups of mice over time.
The “Saline” control denotes untreated mice, having been treated with PBS.
The following daily amounts were administered by gavage to the mice: • oseltamivir: 10 mg/kg/day • etilefrine: 3 mg/kg/day • diltiazem: 90 mg/kg/day

H1N1 pdm09 virus [2] = assay: in vivo antiviral effect, treatment started before H1N1 infection of mice; settings: B57BL/6 mice, gavage on Day-1, day of and 3 days following infection
Description: B57BL/6 mice (age 7-8 weeks) are treated by gavage before (Day-1), the day of, and 3 days following infection with H1N1 pdm09 virus, according to the protocol shown diagrammatically in FIG. 5A.
The following parameters are evaluated over time: • FIG. 5B: Survival rate over time, up to 14 days post-infection; • FIG. 5C: Weight loss and gain observed over time; • FIG. 5D: Viral titer in the lungs of infected and treated mice.

H1N1 pdm09 virus [3] = assay: in vivo antiviral effect, treatment 24 hours after H1N1 infection of mice; settings: B57BL/6 mice, gavage, treatment 24 hours after infection, up to 14 days post-infection
Description: B57BL/6 mice (age 7-8 weeks) are treated by gavage after infection with H1N1 pdm09 virus, according to the protocol shown diagrammatically in FIG. 6A. Survival rate over time is measured for infected mice receiving no treatment (FIG. 6B); treated with oseltamivir (FIG. 6C); and treated with diltiazem (FIG. 6D). The survival rate of mice treated with oseltamivir, and of those treated with diltiazem, is 100%.

[4] = tested on: H1N1 pdm09 virus (A/Pdm/09); assay type: cell-based, human influenza A virus
H1N1 pdm09 virus [5] = assay type: cell-based, human influenza A virus
influenza H1N1 pdm09 = assay type: cell-based, influenza virus
[6] = tested on: A/Moscow/10/99 (H3N2) strain; assay type: cell-based, human influenza A virus; settings: A549 cells, FIG. 2
H1N1 pdm09 = assay type: cell-based, human influenza A virus

COc1ccc([C@@H]2Sc3ccccc3N(CCN(C)C)C(=O)[C@@H]2OC(C)=O)cc1 [diltiazem]
toxicity (change in weight of the mice) [1]: clearly nontoxic
survival at 14 days (H1N1 pdm09 virus [2]): 90%
survival rate (H1N1 pdm09 virus [3]): 100%
normalized virus production [4]: significant decrease
virus production, comparison of the conditions ([4]; diltiazem alone at 9 nM, FIG. 3B): best results
decrease of relative viral titer / virus production relative to the control value (H1N1 pdm09 virus [5]): about 20%
antiviral effect on virus production (influenza H1N1 pdm09; diltiazem 9 μM): no significant antiviral affect
antiviral effect on virus production (influenza H1N1 pdm09; diltiazem 90 μM, compared with oseltamivir 1 μM): comparable antiviral effect

CCNCC(O)c1cccc(O)c1 (stereo not drawn) [etilefrine]
toxicity (change in weight of the mice) [1]: clearly nontoxic
survival at 14 days (H1N1 pdm09 virus [2]): 70%
normalized virus production [4]: significant decrease
antiviral effects [6]: significant from the lowest concentration tested
concentration that completely inhibits virus production [6]: 0.018 µM

CC(=O)O[C@H]1C[C@H](O[C@H]2[C@@H](O)C[C@H](O[C@H]3[C@@H](O)C[C@H](O[C@H]4CC[C@@]5(C)[C@H](CC[C@@H]6[C@@H]5C[C@@H](O)[C@]5(C)[C@@H](C7=CC(=O)OC7)CC[C@]65O)C4)O[C@@H]3C)O[C@@H]2C)O[C@H](C)[C@H]1O[C@@H]1O[C@H](CO)[C@@H](O)[C@H](O)[C@H]1O [lanatoside C]
normalized virus production [4]: did not make it possible to confirm the antiviral activity

CC[C@@]1([C@@H]2O[C@@H]([C@H]3O[C@@](O)(CO)[C@H](C)C[C@@H]3C)C[C@@H]2C)CC[C@H]([C@]2(C)CC[C@]3(C[C@H](O)[C@@H](C)[C@@H]([C@@H](C)[C@@H](OC)[C@H](C)C(=O)O)O3)O2)O1 [monensin]
normalized virus production [4]: significant decrease
decrease of virus production relative to the control value (H1N1 pdm09 virus [5]): about 72%

CCOC(=O)C1=C[C@@H](OC(CC)CC)[C@H](NC(C)=O)[C@@H](N)C1 [oseltamivir]
toxicity (change in weight of the mice) [1]: highest cell toxicity
survival at 14 days (H1N1 pdm09 virus [2]): 60%
survival rate (H1N1 pdm09 virus [3]): 100%
virus production decreased to ([4]; oseltamivir alone, FIGS. 3A and 3B): about 40%
virus production decreased to a value relative to the control value (H1N1 pdm09 virus [5]): about 55%
Dose Oseltamivir (H1N1 pdm09; Fa = 0.90 (90%)): 7.50797 µM
Dose Oseltamivir (H1N1 pdm09; Fa = 0.95 (95%)): 62.435 µM
Dose Oseltamivir (H1N1 pdm09; Fa = 0.97 (97%)): 281.813 µM
decrease of virus production relative to the control value (influenza H1N1 pdm09): up to 3 log 10
antiviral effect on virus production (influenza H1N1 pdm09; oseltamivir 0.1 μM): no significant antiviral affect

NC(=O)c1ncn([C@@H]2O[C@H](CO)[C@@H](O)[C@H]2O)n1 [ribavirin]
normalized virus production [4]: significant decrease
